Where two headings read alike, the source gives them in different places. Where a SMILES comes first, the peptide text is derived from it. Bridges are numbered along the chain shown (N, C = ends). [ ]: non-standard residue; d: D form. The star is where a group is joined. NMeF = CN[C@@H](Cc1ccccc1)C(=O)O; N(Me)CH2CH2Ph = CN(CCc1ccccc1)*; pGlu = O=C1CC[C@@H](C(=O)O)N1; d(hCys) = N[C@H](CCS)C(=O)O; dNle = CCCC[C@@H](N)C(=O)O; hCys = N[C@@H](CCS)C(=O)O; Nle = CCCC[C@H](N)C(=O)O

What is called EC50 is the concentration at which the effect is half-maximal.

For one data set, the target named is T1, hAPJ (Homo sapiens, UniProt P35414).
T1 sequence (P35414 1-380): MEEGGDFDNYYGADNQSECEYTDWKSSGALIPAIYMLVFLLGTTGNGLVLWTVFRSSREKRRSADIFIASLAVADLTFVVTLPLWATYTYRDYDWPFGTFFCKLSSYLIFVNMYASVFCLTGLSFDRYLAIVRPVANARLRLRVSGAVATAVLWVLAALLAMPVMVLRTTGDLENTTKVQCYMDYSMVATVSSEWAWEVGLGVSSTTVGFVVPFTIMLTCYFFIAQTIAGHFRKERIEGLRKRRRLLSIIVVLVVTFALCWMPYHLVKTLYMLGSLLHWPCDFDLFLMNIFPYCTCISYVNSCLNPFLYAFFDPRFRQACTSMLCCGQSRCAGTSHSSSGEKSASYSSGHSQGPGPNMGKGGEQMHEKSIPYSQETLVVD
As to the kind of experiment: hAPJ Calcium Flux Assay. Type of data set: cell-based. The following applies: Chem-5 APJ stable cells, calcium flux stimulation; read-out: hAPJ Ca2+ Flux EC50. As to the method:
Chem-5 APJ stable cells (Millipore # HTS068C) were plated in 384-well format with 10,000 cells/well in 25 ul growth media, then grown 24 hours in a 37° C. tissue culture incubator. One hour before the assay, 25 ul/well FLIPR Calcium 4 dye (Molecular Devices R8142) with 2.5 mM probenecid was added, and cells were incubated one hour in a 37° C. tissue culture incubator. Peptides were solubilized in HBSS, HEPES & 0.1% BSA buffer, and serially-diluted 10-fold, from 50 uM to 5 pM, in triplicate. FLIPR Tetra was used to add peptide to the cells with dye (1:5, for final peptide concentrations ranging from 10 uM to 1 pM). FLIPR dye inside the cells emitted fluorescence after binding to calcium, while fluorescence from outside the cells was masked. […] Readings were done for 3 minutes total, beginning 10 seconds before the peptide addition. Maximum-minimum values were calculated and plotted for each peptide concentration, and GraphPad prism software was used to calculate EC50 values at the curve inflection points, for calcium flux stimulation by peptides.

The nature of data set [1]: Surrogate Activity-Based Plasma Stability Assay. The note with it: rat. It counts as in vitro ADME. From the text: Surrogate Activity-Based Plasma Stability Assay:
2) Calculate slope of value above and […]

As to `CCCC[C@H](NC(=O)[C@@H]1CCCN1C(=O)CNC(=O)[C@H](CCCCN)NC(=O)[C@@H]1CSSC[C@H](NC(=O)[C@@H]2CCCN2C(=O)[C@H](CCCNC(=N)N)NC(=O)[C@@H]2CCC(=O)N2)C(=O)N[C@@H](CC(C)C)C(=O)N[C@@H](CO)C(=O)N1)C(=O)N1CCC[C@H]1C(=O)N(C)[C@@H](Cc1ccccc1)C(=O)O` [Example 29, pE-R-P-C*-L-S-C*-K-G-P-Nle-P-(N-Me)F-OH] ([pGlu]RPCLSCKGP[Nle]P[NMeF]-OH; disulfide 4-7), the EC50 on hAPJ stood at 4.2 nM. The compound also showed a half-life in data set [1] of 705 min.
In data set [1], `CCCC[C@@H](NC(=O)[C@@H]1CCCN1C(=O)CNC(=O)[C@H](CCCCN)NC(=O)[C@@H]1CSSC[C@H](NC(=O)[C@@H]2CCCN2C(=O)[C@H](CCCNC(=N)N)NC(=O)[C@@H]2CCC(=O)N2)C(=O)N[C@@H](CC(C)C)C(=O)N[C@@H](CO)C(=O)N1)C(=O)N[C@H](Cc1ccccc1)C(=O)O` [Example 34, pE-R-P-C*-L-S-C*-K-G-P-(D-Nle)-f-OH] ([pGlu]RPCLSCKGP[dNle][dF]-OH; disulfide 4-7) registered a half-life greater than 1000 min.
In the case of `CCCC[C@H](NC(=O)[C@@H]1CCCN1C(=O)CNC(=O)[C@H](CCCCN)NC(=O)[C@H]1CCSSCC[C@@H](NC(C)=O)C(=O)N[C@@H](CCCNC(=N)N)C(=O)N2CCC[C@H]2C(=O)N[C@@H](CCCNC(=N)N)C(=O)N[C@@H](CC(C)C)C(=O)N[C@@H](CO)C(=O)N1)C(=O)N1CCC[C@H]1C(=O)N[C@@H](Cc1ccccc1)C(=O)O` [Example 17, Ac-(D-hC)*-R-P-R-L-S-(D-hC)*-K-G-P-Nle-P-F-OH] (Ac-[d(hCys)]RPRLS[d(hCys)]KGP[Nle]PF-OH; disulfide 1-7), in data set [1], the half-life stood at 11.4 min.
Still for that read-out and setting: the value for `CCCC[C@H](NC(=O)[C@@H]1CCCN1C(=O)CNC(=O)[C@H](CCCCN)NC(=O)[C@@H]1CSSC[C@H](NC(=O)[C@@H]2CCCN2C(=O)[C@H](CCCNC(=N)N)NC(=O)[C@@H]2CCC(=O)N2)C(=O)N[C@@H](CC(C)C)C(=O)N[C@@H](CO)C(=O)N1)C(=O)N1CCC[C@H]1C(=O)N[C@@H](Cc1ccccc1)C(=O)O` [Example 28, pE-R-P-C*-L-S-C*-K-G-P-Nle-P-F-OH] ([pGlu]RPCLSCKGP[Nle]PF-OH; disulfide 4-7) was 13 min; that for `CCCC[C@@H](NC(=O)[C@@H]1CCCN1C(=O)CNC(=O)[C@H](CCCCN)NC(=O)[C@@H]1CSSC[C@H](NC(=O)[C@H](CCCNC(=N)N)NC(=O)[C@@H]2CCC(=O)N2)C(=O)N[C@@H](CCCNC(=N)N)C(=O)N[C@@H](CC(C)C)C(=O)N[C@@H](CO)C(=O)N1)C(N)=O` [Example 25, pE-R-C*-R-L-S-C*-K-G-P-(D-Nle)-NH2] ([pGlu]RCRLSCKGP[dNle]-NH2; disulfide 3-7) was greater than 1000 min; that for `CCCC[C@H](NC(=O)[C@@H]1CCCN1C(=O)CNC(=O)[C@H](CCCCN)NC(=O)[C@@H]1CSSC[C@H](NC(=O)[C@@H]2CCCN2C(=O)[C@H](CCCNC(=N)N)NC(=O)[C@@H]2CCC(=O)N2)C(=O)N[C@@H](CC(C)C)C(=O)N[C@@H](CO)C(=O)N1)C(=O)N1CCC[C@H]1C(=O)NCCc1ccccc1` [Example 30, pE-R-P-C*-L-S-C*-K-G-P-Nle-P-NH(Phenethyl)] was 661 min.
`CC(C)C[C@@H]1NC(=O)[C@@H](NC(=O)[C@@H]2CCCN2C(=O)[C@H](CCCNC(=N)N)NC(=O)[C@@H]2CCC(=O)N2)CCSSC[C@@H](C(=O)N[C@@H](CCCCN)C(=O)NCC(=O)N2CCC[C@H]2C(=O)N[C@H](Cc2ccccc2)C(=O)N[C@H](C)C(=O)N[C@H](Cc2ccccc2)C(=O)O)NC(=O)[C@H](CO)NC1=O` [Example 36, pE-R-P-hC*-L-S-C*-K-G-P-f-a-f-OH] ([pGlu]RP[hCys]LSCKGP[dF][dA][dF]-OH; disulfide 4-7): on hAPJ, the EC50 is 4.2 nM. Further, the half-life in data set [1] worked out at 34 min.
For the compound `CCCC[C@H](NC(=O)[C@@H]1CCCN1C(=O)CNC(=O)[C@H](CCCCN)NC(=O)[C@H]1CSSC[C@H](NC(C)=O)C(=O)N[C@@H](CCCNC(=N)N)C(=O)N2CCC[C@H]2C(=O)N[C@@H](CCCNC(=N)N)C(=O)N[C@@H](CC(C)C)C(=O)N[C@@H](CO)C(=O)N1)C(=O)N1CCC[C@H]1C(=O)N[C@@H](Cc1ccccc1)C(=O)O` [Example 15, Ac-C*-R-P-R-L-S-c*-K-G-P-Nle-P-F-OH] (Ac-CRPRLS[dC]KGP[Nle]PF-OH; disulfide 1-7), the EC50 at hAPJ is 193 nM. Moreover, the half-life in data set [1] stood at 17.7 min.
In turn, `CCCC[C@H](NC(=O)[C@@H]1CCCN1C(=O)CNC(=O)[C@H](CCCCN)NC(=O)[C@@H]1CCSSCC[C@H](NC(C)=O)C(=O)N[C@@H](CCCNC(=N)N)C(=O)N2CCC[C@H]2C(=O)N[C@@H](CCCNC(=N)N)C(=O)N[C@@H](CC(C)C)C(=O)N[C@@H](CO)C(=O)N1)C(=O)N1CCC[C@H]1C(=O)N[C@@H](Cc1ccccc1)C(=O)O` [Example 7, Ac-hC*-R-P-R-L-S-hC*-K-G-P-Nle-P-F-OH] (Ac-[hCys]RPRLS[hCys]KGP[Nle]PF-OH; disulfide 1-7) showed a half-life in data set [1] of 9 min.
Regarding `CCCC[C@H](NC(=O)[C@@H]1CCCN1C(=O)CNC(=O)[C@H](CCCCN)NC(=O)[C@@H]1CCSSC[C@@H](NC(C)=O)C(=O)N[C@@H](CCCNC(=N)N)C(=O)N2CCC[C@H]2C(=O)N[C@@H](CCCNC(=N)N)C(=O)N[C@@H](CC(C)C)C(=O)N[C@@H](CO)C(=O)N1)C(=O)N1CCC[C@H]1C(=O)N[C@@H](Cc1ccccc1)C(=O)O` [Example 13, Ac-c*-R-P-R-L-S-hC*-K-G-P-Nle-P-F-OH] (Ac-[dC]RPRLS[hCys]KGP[Nle]PF-OH; disulfide 1-7), the half-life in data set [1] was determined as 10 min.
With `CCCC[C@H](NC(=O)[C@@H]1CCCN1C(=O)CNC(=O)[C@H](CCCCN)NC(=O)[C@@H]1CSSC[C@H](NC(C)=O)C(=O)N[C@@H](CCCNC(=N)N)C(=O)N2CCC[C@H]2C(=O)N[C@@H](CCCNC(=N)N)C(=O)N[C@@H](CC(C)C)C(=O)N[C@@H](CO)C(=O)N1)C(=O)N1CCC[C@H]1C(=O)N(C)CCc1ccccc1` [Example 9, Ac-C*-R-P-R-L-S-C*-K-G-P-Nle-P-NMe(Phenethyl)] (Ac-CRPRLSCKGP[Nle]P-{N(Me)CH2CH2Ph}; disulfide 1-7), the half-life in data set [1] (read-out: Surrogate activity-based Plasma stability t½) was found to be 109 min.
Regarding `CCCC[C@H](NC(=O)[C@@H]1CCCN1C(=O)CNC(=O)[C@H](CCCCN)NC(=O)[C@@H]1CCSSC[C@H](NC(C)=O)C(=O)N[C@@H](CCCNC(=N)N)C(=O)N2CCC[C@H]2C(=O)N[C@@H](CCCNC(=N)N)C(=O)N[C@@H](CC(C)C)C(=O)N[C@@H](CO)C(=O)N1)C(=O)N1CCC[C@H]1C(=O)N[C@@H](Cc1ccccc1)C(=O)O` [Example 6, Ac-C*-R-P-R-L-S-hC*-K-G-P-Nle-P-F-OH] (Ac-CRPRLS[hCys]KGP[Nle]PF-OH; disulfide 1-7), the EC50 at hAPJ is 21.4 nM. The compound further came in with a half-life in data set [1] of 5 min.
In data set [1], `CCCC[C@@H](NC(=O)[C@@H]1CCCN1C(=O)CNC(=O)[C@H](Cc1ccccc1)NC(=O)[C@@H]1CSSC[C@H](NC(=O)[C@H](CCCNC(=N)N)NC(=O)[C@@H]2CCC(=O)N2)C(=O)N[C@@H](CCCNC(=N)N)C(=O)N[C@@H](CC(C)C)C(=O)N[C@@H](CO)C(=O)N1)C(=O)N[C@H](C)C(=O)N[C@H](Cc1ccccc1)C(=O)O` [Example 22, pE-R-C*-R-L-S-C*-F-G-P-(D-Nle)-a-f-OH] ([pGlu]RCRLSCFGP[dNle][dA][dF]-OH; disulfide 3-7) displayed a half-life greater than 1000 min.
`CCCC[C@@H](NC(=O)[C@@H]1CCCN1C(=O)[C@H](C)NC(=O)[C@H](CCCCN)NC(=O)[C@@H]1CSSC[C@H](NC(=O)[C@H](CCCNC(=N)N)NC(=O)[C@@H]2CCC(=O)N2)C(=O)N[C@@H](CCCNC(=N)N)C(=O)N[C@@H](CC(C)C)C(=O)N[C@@H](CO)C(=O)N1)C(=O)N[C@H](C)C(=O)N[C@H](Cc1ccccc1)C(=O)O` [Example 24, pE-R-C*-R-L-S-C*-K-A-P-(D-Nle)-a-f-OH] ([pGlu]RCRLSCKAP[dNle][dA][dF]-OH; disulfide 3-7) registered a half-life in data set [1] of 1700 min.
As to `CCCC[C@H](NC(=O)[C@@H]1CCCN1C(=O)CNC(=O)[C@H](CCCCN)NC(=O)[C@@H]1CCSSCC[C@@H](NC(C)=O)C(=O)N[C@@H](CCCNC(=N)N)C(=O)N2CCC[C@H]2C(=O)N[C@@H](CCCNC(=N)N)C(=O)N[C@@H](CC(C)C)C(=O)N[C@@H](CO)C(=O)N1)C(=O)N1CCC[C@H]1C(=O)N[C@@H](Cc1ccccc1)C(=O)O` [Example 16, Ac-(D-hC)*-R-P-R-L-S-hC*-K-G-P-Nle-P-F-OH] (Ac-[d(hCys)]RPRLS[hCys]KGP[Nle]PF-OH; disulfide 1-7), the half-life in data set [1] came out at 7 min.
For `CCCC[C@@H](NC(=O)[C@@H]1CCCN1C(=O)CNC(=O)[C@H](CCCCN)NC(=O)[C@@H]1CCSSC[C@@H](NC(C)=O)C(=O)N[C@@H](CCCNC(=N)N)C(=O)N2CCC[C@H]2C(=O)N[C@@H](CCCNC(=N)N)C(=O)N[C@@H](CC(C)C)C(=O)N[C@@H](CO)C(=O)N1)C(=O)N[C@H](C)C(=O)N[C@H](Cc1ccccc1)C(=O)O` [Example 19, Ac-c-R-P-R-L-S-(hC)-K-G-P-(D-Nle)-a-f-OH] (Ac-[dC]RPRLS[hCys]KGP[dNle][dA][dF]-OH; disulfide 1-7 (inferred)), the half-life in data set [1] turned out to be 50 min.

The values are drawn from patent US9683019B2, “Cyclic polypeptides for the treatment of heart failure” (priority 2013, dated 2017).
